Reference: the supplement of paper PMC4862054
Where “and” joins values, the source holds several entries; their conditions need not be identical. Equal values may be shown once.

How the values were obtained:
Conditions in all cases: incubation time: 72 h
CAL-120 = assay: drug sensitivity score (DSS), CellTox Green (DSS (AUC-based score)); higher = stronger drug effect (viability inhibition or cytotoxicity); extreme values may be limits of the assay
Summary of the method: (§1)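 Breast cancer cells were seeded into 384-well plates containing compound at 5 concentrations in 10-fold steps over a compound-specific 10,000-fold range and incubated 72 h. After CellTox Green and CellTiter-Glo readings, each plate was normalised to 0.1 % DMSO and a positive kill control. The drug sensitivity score rests on the area under the fitted dose-response curve.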

MDA-MB-231 = assay: as above
Summary of the method: as §1

CAL-85-1 [1] = assay: as above
Summary of the method: as §1

HCC1143 = assay: as above
Summary of the method: as §1

CAL-148 [2] = assay: as above
Summary of the method: as §1

MDA-MB-453 [3] = assay: as above
Summary of the method: as §1

CAL-85-1 [4] = assay: normalised viability (% of control), CellTiter-Blue; higher = more viable cells (about 100 = DMSO control)
Protocol: (§2)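 DSRT, CellTiter-Blue viability, 72 h incubation. Signal is normalised to DMSO and benzethonium chloride controls. Value is the normalised response at dose 7.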

CAL-51 = assay: as above
Protocol: as §2

CAL-148 [5] = assay: as above
Protocol: as §2

HDQ-P1 = assay: as above
Protocol: as §2

MDA-MB-453 [6] = assay: as above
Protocol: as §2

DU-4475 = assay: as above
Protocol: as §2

SMILES	drug sensitivity score (CAL-120)	drug sensitivity score (MDA-MB-231)	drug sensitivity score (CAL-85-1 [1])	drug sensitivity score (HCC1143)	drug sensitivity score (CAL-148 [2])	drug sensitivity score (MDA-MB-453 [3])	normalised viability (CAL-85-1 [4])	normalised viability (CAL-51)	normalised viability (CAL-148 [5])	normalised viability (HDQ-P1) [%]	normalised viability (MDA-MB-453 [6])	normalised viability (DU-4475)
CC(C)(C)Cn1c(N)nc2ccc(-c3[nH]c(C(C)(C)C)nc3-c3ccc(F)cc3)nc21	0.748	0.996	4.77	0	0	0	–	–	–	–	–	–
Cn1cc(C[C@@H](N)C(=O)O)c2ccccc21 [1-methyl-D-tryptophan]	0	0	0	0	0	0	–	–	–	–	–	–
CC[C@H](CC#N)OC(=O)N[C@@H](C)c1cccc(NC(=O)Nc2ccc(-c3cnco3)c(OC)c2)c1 [AVN944]	0	0	0	0	0	0	–	–	–	–	–	–
Cc1c(N)nc([C@H](CC(N)=O)NC[C@H](N)C(N)=O)nc1C(=O)N[C@H](C(=O)N[C@H](C)[C@@H](O)[C@H](C)C(=O)N[C@H](C(=O)NCCc1nc(-c2nc(C(=O)NCCC[S+](C)C)cs2)cs1)[C@@H](C)O)[C@@H](OC1OC(CO)C(O)C(O)C1OC1OC(CO)C(O)C(OC(N)=O)C1O)c1cnc[nH]1 (stereo partly specified) [Bleomycin] (1000 nM)	–	–	–	–	–	–	94.5%	105%	105%	88	94.3%	98.9%
Cc1cc2c(F)c(Oc3ncnn4cc(OC[C@@H](C)O)c(C)c34)ccc2[nH]1 [Brivanib] (100 nM)	–	–	–	–	–	–	87%	93.7%	111%	110	90%	104%
CCCCCOC(=O)Nc1nc(=O)n([C@@H]2O[C@H](C)[C@@H](O)[C@H]2O)cc1F [Capecitabine] (1000 nM)	–	–	–	–	–	–	79.7% and 96.2%	106% and 104%	105% and 102%	–	86.8% and 94.9%	87.4% and 85.9%
CC(C)C[C@H](NC(=O)[C@H](CCc1ccccc1)NC(=O)CN1CCOCC1)C(=O)N[C@@H](Cc1ccccc1)C(=O)N[C@@H](CC(C)C)C(=O)[C@@]1(C)CO1 [Carfilzomib] (100 nM)	–	–	–	–	–	–	3.69%	10.2%	2.75%	0.52	12.1%	1.6%
Nc1nc(Cl)nc2c1ncn2[C@@H]1O[C@H](CO)[C@@H](O)[C@@H]1F [Clofarabine] (1000 nM)	–	–	–	–	–	–	56.1%	52.1%	40.8%	101	53.6%	29%
CCN(CC)CCOc1ccc(C(=C(Cl)c2ccccc2)c2ccccc2)cc1 [Clomifene] (1000 nM)	–	–	–	–	–	–	97.6%	85.4%	110%	128	108%	103%
C[C@@H]1C[C@H]2[C@@H]3CCC4=CC(=O)C=C[C@]4(C)[C@@]3(F)[C@@H](O)C[C@]2(C)[C@@]1(O)C(=O)CO [Dexamethasone] (1000 nM)	–	–	–	–	–	–	103%	101%	115%	117	69.8%	106%
CCc1cnn2c(NCc3ccc[n+]([O-])c3)cc(N3CCCC[C@H]3CCO)nc12 [Dinaciclib]	1.4	25.4	18.4	0	9.14	0	–	–	–	–	–	–
Cc1c(C(=O)Nc2ccc(N3C[C@@H](C)O[C@@H](C)C3)nc2)cccc1-c1ccc(OC(F)(F)F)cc1 [Erismodegib]	0	0.0859	0	0	2.18	0	–	–	–	–	–	–
CC(C)C(=O)Nc1ccc([N+](=O)[O-])c(C(F)(F)F)c1 [Flutamide] (1000 nM)	–	–	–	–	–	–	84.2%	115%	104%	101	90.1%	102%
COc1cc2c(Oc3ccc(NC(=O)C4(C(=O)Nc5ccc(F)cc5)CC4)cc3F)ccnc2cc1OCCCN1CCOCC1 [Foretinib] (100 nM)	–	–	–	–	–	–	84.7%	85.4%	92.8%	77.3	91.1%	100%
COc1cc(Nc2ncc(F)c(Nc3ccc4c(n3)N(COP(=O)(O)O)C(=O)C(C)(C)O4)n2)cc(OC)c1OC [Fostamatinib]	0	11.1	6.03	0	0	0	–	–	–	–	–	–
CC(C)NC[C@@H](C(=O)N1CCN(c2ncnc3c2[C@H](C)C[C@H]3O)CC1)c1ccc(Cl)cc1 [GDC-0068]	0	0	0	0	14.1	0	–	–	–	–	–	–
CCCc1cc(C)[nH]c(=O)c1CNC(=O)c1cc(-c2ccnc(N3CCN(C)CC3)c2)cc2c1cnn2C(C)C [GSK343]	0	7.22	2.18	0	0	6.47	–	–	–	–	–	–
